The OligoGym collection
After the bases stand the sugars from the 5' end (letter, count) and the backbone: PS all phosphorothioate, else s phosphorothioate and o phosphodiester by linkage. Methylation of C is not given here. l = locked nucleic acid (LNA); d = 2'-deoxy (DNA)

Biological target: SNHG14
Details: ASO
[1] = Mouse Primary Neuronal Cell, 0.005 µM

Sequence | target mRNA inhibition (Human Neuronal Cell, 7.5 µM) [%] | target mRNA inhibition (Human Neuronal Cell, 0.2 µM) [%] | target mRNA inhibition (Human Neuronal Cell, 1 µM) [%] | other results
TTATAGCCATTCTATCT (sugars l4 d7 l1 d3 l2, PS) | 44 |  |  | 
CTGCCATCTTTATTTAT (sugars l4 d11 l2, PS) |  | 5 | 9 | 
AATTATTTATACACCATCAT (sugars lddddldddddddlldldll, PS) | 60 |  |  | 
CCCAAATAAGCAAACT (sugars l4 d10 l2, PS) |  | 35 | 43 | 
ACTGTTTATACCCTTTC (sugars lddldddddddldddll, PS) | 53 |  |  | 
ACTCTGCAATACACCAA (sugars l4 d8 l1 d2 l2, PS) | 57 |  |  | 
ATTTTTTTCTTACTATCTTC (sugars ldddllddddddddlddlll, PS) | 58 |  |  | 
ATTGATTCAATTCCCTT (sugars lddlddddddddlldll, PS) | 61 |  |  | 
AGCAACATTATTAACCAC (sugars lddlddddddddldllll, PS) | 47 |  |  | 
AAAATCTCAACTACCATTTT (sugars llddllddddddddddldll, PS) | 23 |  |  | 
AAACTCTTGCATCTACT (sugars l2 d13 l2, PS) |  | 19 | 41 | 
TGTTTATACCCTTTCCAA (sugars lddddlddddddldldll, PS) | 47 |  |  | 
GTTTATACCCTTTCCAAT (sugars l1 d12 l2 d1 l2, PS) | 54 |  |  | 
TACTCTGCAATACACC (sugars l1 d3 l1 d9 l2, PS) | 52 |  |  | 
TGAAAATCTCAACTACCAT (sugars l4 d12 l3, PS) | 49 |  |  | 
TTTATCTATTTAATTTACA (sugars l4 d13 l2, PS) |  | 7 | 6 | 
AATTTTTTTCTTACTATCTT (sugars llddlldddddddldlldll, PS) | 61 |  |  | 

Sequence | target mRNA inhibition (Human Neuronal Cell, 7.5 µM) [%] | target mRNA inhibition (Human Neuronal Cell, 0.2 µM) [%] | target mRNA inhibition (Human Neuronal Cell, 1 µM) [%] | other results
GTTACCTACATCTCATA (sugars l2 d11 l4, PS) |  | -4 | 10 | target mRNA inhibition (Human Neuronal Cell, 5 µM): 21%; target mRNA inhibition [1]: 92%
TATTGATTCAATTCCCT (sugars lddldddddddddldll, PS) | 51 |  |  | 
GAAAATCTCAACTACCATT (sugars l4 d10 l1 d1 l3, PS) | 45 |  |  | 
TTACACTTAATTATACTT (sugars l3 d12 l3, PS) |  | 14 | 22 | 
TGCTACCATCATTACCT (sugars l2 d13 l2, PS) |  | 12 | 19 | 
ATATTGATTCAATTCCC (sugars l2 d2 l1 d9 l3, PS) | 75 |  |  | 
AAAATCTCAACTACCATTT (sugars llddlldddddddlldlll, PS) | 52 |  |  | 
AGTTCTACTATACTTTCC (sugars l2 d14 l2, PS) | 14 |  |  | 
TCATACTTGCTTTAAT (sugars l4 d10 l2, PS) |  | 13 | 38 | 
TTCTGTATACACCATCCC (sugars ldddlddddddddlddll, PS) | 54 |  |  | 
TTACCTACATCTCATAC (sugars l3 d11 l3, PS) |  | 0 | 5 | target mRNA inhibition (Human Neuronal Cell, 5 µM): 21%; target mRNA inhibition [1]: 91.3%
ACTCTGCAATACACCAA (sugars lldllddddddllddll, PS) | 38 |  |  | 
AAACTGTACACCTACT (sugars l2 d10 l4, PS) |  | 31 | 44 | 
TTTGACATTCCATCTC (sugars l3 d10 l3, PS) |  | 56 | 59 | 
AGTTCTACTATACTTTCC (sugars lddddldddddddlddll, PS) | 60 |  |  | 
AGTTCTACTATACTTTC (sugars l4 d11 l2, PS) |  | 50 | 57 | 
TTCTGTATACACCATCC (sugars l1 d10 l1 d3 l2, PS) | 51 |  |  | 
